# According to US4293489A, “Derivatives of A-30912A nucleus” (Eli Lilly and Company, priority 1980, dated 1981):
# Starred links: 1 amine or outer side, 2 acyl side, 3 side chain; linkers in the order of their positions; H or OH if unused. Positions of bridges follow the written chain, without caps; N, C: chain ends. Non-standard residues stand in square brackets, D forms with d. Residues, ends and D or L forms follow the SMILES beside them. *: point of attachment. Orn(4R-OH,5R-OH) = O=C([C@H](C[C@@H](O)[C@@H](O)N[*:3])N[*:1])[*:2]; hTyr(3S-OH,4S-OH) = N[C@H](C(=O)O)[C@H](O)[C@@H](O)c1ccc(O)cc1; Benzoyl(4-OC10H21) = CCCCCCCCCCOc1ccc(C(=O)*)cc1; Pro(3S-OH,4S-Me) = C[C@H]1CN[C@H](C(=O)O)[C@H]1O; Benzoyl(4-octyloxy) = CCCCCCCCOc1ccc(C(=O)*)cc1; X5 = CCCCCCCCCCCCS(=O)(=O)c1ccc(C(=O)*)cc1; X4 = CCCCCCCCCCS(=O)(=O)c1ccc(C(=O)*)cc1; X23 = CCCCCCCCS(=O)(=O)c1ccc(C(=O)*)cc1; X22 = CCCCCCCCCCCCOc1ccc(CCC(=O)*)cc1; X25 = CCCCCCCCCCOc1ccc(OCC(=O)*)cc1; X1 = CCCCCCCCCCCCSc1ccc(C(=O)*)cc1; X21 = CCCCCCCCOc1ccc(CCC(=O)*)cc1; Hyp = O=C(O)[C@@H]1C[C@@H](O)CN1; X29 = CCCCCCCOc1ccc(CCC(=O)*)cc1; X6 = CCCCCCCCCCSc1ccc(C(=O)*)cc1; X30 = CCCCCCCCOc1ccc(C(=O)*)cn1; X26 = CCCCCOc1ccc(CCC(=O)*)cc1; X7 = CCCCCCCCSc1ccc(C(=O)*)cc1
# Tests used:
# Candida albicans A-26 [1] = assay: Agar plate disc diffusion test, MIC per disc; type: cell-based; details: 0.1M sodium borate, pH 7.5, 24 hours, 30° C.
# Experimental: (§1) Tables 10 and 11 give the results of the testing in vitro of the compounds of Examples 3 and 4 by agar-plate disc-diffusion methods. In Table 10 activity is measured by the size (diameter in mm) of the observed zone of inhibition of the microorganism produced by the test compound. In Table 11, activity is measured by the minimal inhibitory concentration (MIC) of the substance (μg/disc) required to inhibit growth of the test organism. Table 12 gives the results of the testing in vitro of the p-(n-octyloxy)benzoyl derivative of A30912A nucleus [Formula III, R^1 is p-(n-octyloxy)benzoyl] against five strains of Candida albicans by the agar dilution method. In Table 12 activity is measured by the minimal inhibitory concentration (MIC) of the substance (μg/ml) required to inhibit the test organism.
# (§2) ^(a) Compounds were suspended in 0.1M sodium borate solution, pH 7.5.
# (§3) The compounds were tested at 20 μg/disc at top level and at twofold
# (§4) dilutions until end points were reached. Incubation: 24 hours; 30°
# [2] = test system: Trychophyton mentagrophyes #6; assay: Agar plate disc diffusion test, MIC per disc; type: cell-based, Trichophyton mentagrophytes; details: 0.1M sodium borate, pH 7.5, 24 hours, 30° C., * measurable zones with regrowth of organism around disc
# Experimental: as §1, §2, §3, §4
# *Measurable zones of inhibition with regrowth of organism around disc.
# Candida albicans A-26 [3] = assay: Therapeutic activity against Candida albicans A-26 infection in mice, ED50; type: in vivo; details: Candida albicans, A26, sc, doses 0, 4 and 24 hours post infection, increase in survival time vs control, Reed-Muench, read-out: ED50
# Experimental: The results of in vivo tests to evaluate the effectiveness of the compounds of Examples 3 and 4 against an infection caused by Candida albicans A-26 in mice are given in Table 13, where activity is measured by the ED50 value (the dose in mg/kg. required to cure 50% of the test animals). In a separate test, the results of which are also summarized in Table 13, activity is indicated by the lowest dose at which a significant anti-fungal effect is observed. In this test, groups of male albino mice (specific pathogen free), weighing 18 to 20 grams, are infected intravenously with Candida albicans A-26. The animals are X-irradiated 24 hours prior to infection at about 50 roentgens per minute for 8 minutes (400 total dose) to reduce immune responses to the infecting organism. At 0, 4, and 24 hours post infection each group of mice is given graded doses subcutaneously of the test compound as a suspension in 33% polyethylene glycol (PEG)-water. The day of death for each animal is recorded.
# *Dosage Schedules: A. = 40, 20, 15 and 10 mg/kg; Dosages given 0, 4, and
# 24 hours post injection as suspension of test compound in 30% PEGH2
# O. Number of mice receiving test compounds at each dosage level: 6 mice
# per group. Number of mice in control (untreated) group: 10 mice per group
# **As measured by increase in survival time of treated animals versus
# control, calculated by method of Reed v Mueuch, American J. Hygiene, 27,
MIC (Candida albicans A-26 [1]),MIC [2],SMILES,ED50 (Candida albicans A-26 [3])
0.156 μg/disc,< 0.156 μg/disc,"CCCCCCCCCCOc1ccc(OCC(=O)N[C@H]2C[C@@H](O)[C@@H](O)NC(=O)[C@@H]3[C@@H](O)[C@@H](C)CN3C(=O)[C@H]([C@@H](C)O)NC(=O)[C@H]([C@H](O)[C@@H](O)c3ccc(O)cc3)NC(=O)[C@@H]3C[C@@H](O)CN3C(=O)[C@H]([C@@H](C)O)NC2=O)cc1 (X25-[Orn(4R-OH,5R-OH)]T[Hyp][hTyr(3S-OH,4S-OH)]T[Pro(3S-OH,4S-Me)]; lactam 1-C)",
5 μg/disc,0.156 μg/disc,"CCCCCOc1ccc(CCC(=O)N[C@H]2C[C@@H](O)[C@@H](O)NC(=O)[C@@H]3[C@@H](O)[C@@H](C)CN3C(=O)[C@H]([C@@H](C)O)NC(=O)[C@H]([C@H](O)[C@@H](O)c3ccc(O)cc3)NC(=O)[C@@H]3C[C@@H](O)CN3C(=O)[C@H]([C@@H](C)O)NC2=O)cc1 (X26-[Orn(4R-OH,5R-OH)]T[Hyp][hTyr(3S-OH,4S-OH)]T[Pro(3S-OH,4S-Me)]; lactam 1-C)",
0.625 μg/disc,0.156 μg/disc,"CCCCCCCOc1ccc(CCC(=O)N[C@H]2C[C@@H](O)[C@@H](O)NC(=O)[C@@H]3[C@@H](O)[C@@H](C)CN3C(=O)[C@H]([C@@H](C)O)NC(=O)[C@H]([C@H](O)[C@@H](O)c3ccc(O)cc3)NC(=O)[C@@H]3C[C@@H](O)CN3C(=O)[C@H]([C@@H](C)O)NC2=O)cc1 (X29-[Orn(4R-OH,5R-OH)]T[Hyp][hTyr(3S-OH,4S-OH)]T[Pro(3S-OH,4S-Me)]; lactam 1-C)",
80 μg/disc,2.5 μg/disc,"CCCCCCCCOc1ccc(C(=O)N[C@H]2C[C@@H](O)[C@@H](O)NC(=O)[C@@H]3[C@@H](O)[C@@H](C)CN3C(=O)[C@H]([C@@H](C)O)NC(=O)[C@H]([C@H](O)[C@@H](O)c3ccc(O)cc3)NC(=O)[C@@H]3C[C@@H](O)CN3C(=O)[C@H]([C@@H](C)O)NC2=O)cn1 (X30-[Orn(4R-OH,5R-OH)]T[Hyp][hTyr(3S-OH,4S-OH)]T[Pro(3S-OH,4S-Me)]; lactam 1-C)",
0.156 μg/disc,0.039 μg/disc,"CCCCCCCCCCSc1ccc(C(=O)N[C@H]2C[C@@H](O)[C@@H](O)NC(=O)[C@@H]3[C@@H](O)[C@@H](C)CN3C(=O)[C@H]([C@@H](C)O)NC(=O)[C@H]([C@H](O)[C@@H](O)c3ccc(O)cc3)NC(=O)[C@@H]3C[C@@H](O)CN3C(=O)[C@H]([C@@H](C)O)NC2=O)cc1 [drawing 120] (X6-[Orn(4R-OH,5R-OH)]T[Hyp][hTyr(3S-OH,4S-OH)]T[Pro(3S-OH,4S-Me)]; lactam 1-C)",
20 μg/disc,0.312 μg/disc,"CCCCCCCCS(=O)(=O)c1ccc(C(=O)N[C@H]2C[C@@H](O)[C@@H](O)NC(=O)[C@@H]3[C@@H](O)[C@@H](C)CN3C(=O)[C@H]([C@@H](C)O)NC(=O)[C@H]([C@H](O)[C@@H](O)c3ccc(O)cc3)NC(=O)[C@@H]3C[C@@H](O)CN3C(=O)[C@H]([C@@H](C)O)NC2=O)cc1 [drawing 123] (X23-[Orn(4R-OH,5R-OH)]T[Hyp][hTyr(3S-OH,4S-OH)]T[Pro(3S-OH,4S-Me)]; lactam 1-C)",
2.5 μg/disc,0.156 μg/disc,"CCCCCCCCCCS(=O)(=O)c1ccc(C(=O)N[C@H]2C[C@@H](O)[C@@H](O)NC(=O)[C@@H]3[C@@H](O)[C@@H](C)CN3C(=O)[C@H]([C@@H](C)O)NC(=O)[C@H]([C@H](O)[C@@H](O)c3ccc(O)cc3)NC(=O)[C@@H]3C[C@@H](O)CN3C(=O)[C@H]([C@@H](C)O)NC2=O)cc1 [drawing 124] (X4-[Orn(4R-OH,5R-OH)]T[Hyp][hTyr(3S-OH,4S-OH)]T[Pro(3S-OH,4S-Me)]; lactam 1-C)",
0.625 μg/disc,0.078 μg/disc,"CCCCCCCCCCCCS(=O)(=O)c1ccc(C(=O)N[C@H]2C[C@@H](O)[C@@H](O)NC(=O)[C@@H]3[C@@H](O)[C@@H](C)CN3C(=O)[C@H]([C@@H](C)O)NC(=O)[C@H]([C@H](O)[C@@H](O)c3ccc(O)cc3)NC(=O)[C@@H]3C[C@@H](O)CN3C(=O)[C@H]([C@@H](C)O)NC2=O)cc1 [drawing 125] (X5-[Orn(4R-OH,5R-OH)]T[Hyp][hTyr(3S-OH,4S-OH)]T[Pro(3S-OH,4S-Me)]; lactam 1-C)",
,,"CCCCCCCCS(=O)(=O)c1ccc(C(=O)N[C@H]2C[C@@H](O)[C@@H](O)NC(=O)[C@@H]3[C@@H](O)[C@@H](C)CN3C(=O)[C@H]([C@@H](C)O)NC(=O)[C@H]([C@H](O)[C@@H](O)c3ccc(O)cc3)NC(=O)[C@@H]3C[C@@H](O)CN3C(=O)[C@H]([C@@H](C)O)NC2=O)cc1 [drawing 159] (X23-[Orn(4R-OH,5R-OH)]T[Hyp][hTyr(3S-OH,4S-OH)]T[Pro(3S-OH,4S-Me)]; lactam 1-C)",57 mg/kg
,,"CCCCCCCCCCS(=O)(=O)c1ccc(C(=O)N[C@H]2C[C@@H](O)[C@@H](O)NC(=O)[C@@H]3[C@@H](O)[C@@H](C)CN3C(=O)[C@H]([C@@H](C)O)NC(=O)[C@H]([C@H](O)[C@@H](O)c3ccc(O)cc3)NC(=O)[C@@H]3C[C@@H](O)CN3C(=O)[C@H]([C@@H](C)O)NC2=O)cc1 [drawing 160] (X4-[Orn(4R-OH,5R-OH)]T[Hyp][hTyr(3S-OH,4S-OH)]T[Pro(3S-OH,4S-Me)]; lactam 1-C)",57 mg/kg
,,"CCCCCCCCOc1ccc(CCC(=O)N[C@H]2C[C@@H](O)[C@@H](O)NC(=O)[C@@H]3[C@@H](O)[C@@H](C)CN3C(=O)[C@H]([C@@H](C)O)NC(=O)[C@H]([C@H](O)[C@@H](O)c3ccc(O)cc3)NC(=O)[C@@H]3C[C@@H](O)CN3C(=O)[C@H]([C@@H](C)O)NC2=O)cc1 [drawing 172] (X21-[Orn(4R-OH,5R-OH)]T[Hyp][hTyr(3S-OH,4S-OH)]T[Pro(3S-OH,4S-Me)]; lactam 1-C)",4.5 mg/kg
,,"CCCCCCCCCCCCOc1ccc(CCC(=O)N[C@H]2C[C@@H](O)[C@@H](O)NC(=O)[C@@H]3[C@@H](O)[C@@H](C)CN3C(=O)[C@H]([C@@H](C)O)NC(=O)[C@H]([C@H](O)[C@@H](O)c3ccc(O)cc3)NC(=O)[C@@H]3C[C@@H](O)CN3C(=O)[C@H]([C@@H](C)O)NC2=O)cc1 [drawing 173] (X22-[Orn(4R-OH,5R-OH)]T[Hyp][hTyr(3S-OH,4S-OH)]T[Pro(3S-OH,4S-Me)]; lactam 1-C)",4.5 mg/kg

SMILES,MIC (Candida albicans A-26 [1]),MIC [2],ED50 (Candida albicans A-26 [3])
"CCCCCCCCOc1ccc(C(=O)N[C@H]2C[C@@H](O)[C@@H](O)NC(=O)[C@@H]3[C@@H](O)[C@@H](C)CN3C(=O)[C@H]([C@@H](C)O)NC(=O)[C@H]([C@H](O)[C@@H](O)c3ccc(O)cc3)NC(=O)[C@@H]3C[C@@H](O)CN3C(=O)[C@H]([C@@H](C)O)NC2=O)cc1 [drawing 115] ({Benzoyl(4-octyloxy)}-[Orn(4R-OH,5R-OH)]T[Hyp][hTyr(3S-OH,4S-OH)]T[Pro(3S-OH,4S-Me)]; lactam 1-C)",0.156 μg/disc,< 0.039 μg/disc,
"CCCCCCCCCCOc1ccc(C(=O)N[C@H]2C[C@@H](O)[C@@H](O)NC(=O)[C@@H]3[C@@H](O)[C@@H](C)CN3C(=O)[C@H]([C@@H](C)O)NC(=O)[C@H]([C@H](O)[C@@H](O)c3ccc(O)cc3)NC(=O)[C@@H]3C[C@@H](O)CN3C(=O)[C@H]([C@@H](C)O)NC2=O)cc1 [drawing 116] ({Benzoyl(4-OC10H21)}-[Orn(4R-OH,5R-OH)]T[Hyp][hTyr(3S-OH,4S-OH)]T[Pro(3S-OH,4S-Me)]; lactam 1-C)",0.156 μg/disc,< 0.078 μg/disc,
"CCCCCCCCSc1ccc(C(=O)N[C@H]2C[C@@H](O)[C@@H](O)NC(=O)[C@@H]3[C@@H](O)[C@@H](C)CN3C(=O)[C@H]([C@@H](C)O)NC(=O)[C@H]([C@H](O)[C@@H](O)c3ccc(O)cc3)NC(=O)[C@@H]3C[C@@H](O)CN3C(=O)[C@H]([C@@H](C)O)NC2=O)cc1 [drawing 119] (X7-[Orn(4R-OH,5R-OH)]T[Hyp][hTyr(3S-OH,4S-OH)]T[Pro(3S-OH,4S-Me)]; lactam 1-C)",0.312 μg/disc,< 0.039 μg/disc,
"CCCCCCCCCCCCSc1ccc(C(=O)N[C@H]2C[C@@H](O)[C@@H](O)NC(=O)[C@@H]3[C@@H](O)[C@@H](C)CN3C(=O)[C@H]([C@@H](C)O)NC(=O)[C@H]([C@H](O)[C@@H](O)c3ccc(O)cc3)NC(=O)[C@@H]3C[C@@H](O)CN3C(=O)[C@H]([C@@H](C)O)NC2=O)cc1 [drawing 121] (X1-[Orn(4R-OH,5R-OH)]T[Hyp][hTyr(3S-OH,4S-OH)]T[Pro(3S-OH,4S-Me)]; lactam 1-C)",2.5 μg/disc,< 0.039 μg/disc,
